Experiments:
Assay in all cases: relative viability (nuclei count vs DMSO), 5 days (fraction); higher = more cells survive
Selisistat + Lapatinib = compound: C1CC(C2=C(C1)C3=C(N2)C=CC(=C3)Cl)C(=O)N [Selisistat] + CS(=O)(=O)CCNCc1ccc(-c2ccc3ncnc(Nc4ccc(OCc5cccc(F)c5)c(Cl)c4)c3c2)o1 [Lapatinib] (partner 2 µM)
Summary of the method: (§1)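 Each reported value is a median over duplicate plates. It expresses relative viability: treated-well nuclei count divided by vehicle-well nuclei count. Lung cancer cell lines in 1536-well plates were dosed by pin tool a day after seeding, alone with one drug or with a fixed anchor-drug dose plus five library-drug doses (not always all listed) in √10 steps, and nuclei were counted after 5 days.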

Selisistat + Foretinib = compound: C1CC(C2=C(C1)C3=C(N2)C=CC(=C3)Cl)C(=O)N [Selisistat] + COc1cc2c(Oc3ccc(NC(=O)C4(C(=O)Nc5ccc(F)cc5)CC4)cc3F)ccnc2cc1OCCCN1CCOCC1 [Foretinib] (partner 0.25 µM)
Summary of the method: as §1

Selisistat = compound: C1CC(C2=C(C1)C3=C(N2)C=CC(=C3)Cl)C(=O)N [Selisistat]
Summary of the method: (§2)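 Nuclei counted with MetaXpress define viability as the ratio of treated to vehicle wells, given as a median across plates. The lung cancer cell lines were in 1536-well plates, pinned with five √10-spaced library-drug doses and imaged at 4× after 5 days and Hoechst staining. Plates passed with control CV below 25% and at least one doubling.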

Serdemetan = compound: c1ccc2c(CCNc3ccc(Nc4ccncc4)cc3)c[nH]c2c1 [Serdemetan]
Summary of the method: as §2

Work on UMC-11 yielded a relative viability (Selisistat + Lapatinib; first compound 0.4 µM) of 0.921, a relative viability (Selisistat + Lapatinib; first compound 1.265 µM) of 0.999 and a relative viability (Selisistat + Lapatinib; first compound 4 µM) of 0.893. The relative viability (Selisistat + Lapatinib; first compound 12.65 µM) was 0.94, the relative viability (Selisistat + Lapatinib; first compound 40 µM) was 1.06 and the relative viability (Selisistat + Foretinib; first compound 0.4 µM) was 0.979. For the same cell line, the relative viability (Selisistat + Foretinib; first compound 1.265 µM) was 0.988, the relative viability (Selisistat + Foretinib; first compound 4 µM) was 1.08 and the relative viability (Selisistat + Foretinib; first compound 12.65 µM) was 0.982. For the same cell line, the relative viability (Selisistat + Foretinib; first compound 40 µM) was 1.02, the relative viability (Selisistat; 0.4 µM) was 1 and the relative viability (Selisistat; 1.265 µM) was 0.962. The relative viability (Selisistat; 4 µM) was 0.883, the relative viability (Selisistat; 12.65 µM) was 0.978 and the relative viability (Selisistat; 40 µM) was 1.06. It also gave a relative viability (Serdemetan; 0.04 µM) of 0.935, a relative viability (Serdemetan; 0.1265 µM) of 1.01 and a relative viability (Serdemetan; 0.4 µM) of 0.902. It also gave a relative viability (Serdemetan; 1.265 µM) of 0.661 and a relative viability (Serdemetan; 4 µM) of 0.924.
